# Experimental data from ChEMBL document CHEMBL1201862, “PubChem BioAssay data set” (2004).
#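 Following 48 hours of exposure in 96-well plates, responses at five concentrations were used to interpolate endpoints linearly. The concentration for 50% growth inhibition is given as GI50.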 Activity calls are given as the source filed them. Cut-off read from the data, not from the text of the source: active = GI50 up to about 1.1 µM and inactive = higher.
# Experiments:
# Test in all cases: growth of human tumour cells (NCI), 48 h
# RPMI-8226 = test system: RPMI-8226
# NCI-H522 = test system: NCI-H522
# 786-0 = test system: 786-0
# UACC-62 = test system: UACC-62
# CCRF-CEM = test system: CCRF-CEM
# HOP-62 = test system: HOP-62
# SN12C = test system: SN12C
# BT-549 = test system: BT-549
# OVCAR-5 = test system: OVCAR-5
# OVCAR-8 = test system: OVCAR-8
# MCF7 = test system: MCF7
# CAKI-1 = test system: CAKI-1
# HCT-116 = test system: HCT-116
# SNB-19 = test system: SNB-19
# HCT-15 = test system: HCT-15
# HL-60 = test system: HL-60
# HCC 2998 = test system: HCC 2998
# MDA-MB-435 = test system: MDA-MB-435
# Hs-578T = test system: Hs-578T
# COLO 205 = test system: COLO 205
# T47D = test system: T47D
# DU-145 = test system: DU-145
# IGROV-1 = test system: IGROV-1
# A549 = test system: A549
# EKVX = test system: EKVX
# HT-29 = test system: HT-29
# MDA-N = test system: MDA-N
# RXF 393 = test system: RXF 393
# SF-539 = test system: SF-539
# SF-295 = test system: SF-295
# TK-10 = test system: TK-10
# Malme-3M = test system: Malme-3M
# SK-MEL-28 = test system: SK-MEL-28
# SF-268 = test system: SF-268
# UO-31 = test system: UO-31
# MOLT-4 = test system: MOLT-4
# A498 = test system: A498
# U-251 = test system: U-251
# M14 = test system: M14
# SW-620 = test system: SW-620
# MDA-MB-231 = test system: MDA-MB-231
# OVCAR-3 = test system: OVCAR-3
# PC-3 = test system: PC-3
# KM12 = test system: KM12
# SK-MEL-5 = test system: SK-MEL-5
# NCI-H460 = test system: NCI-H460
# SK-OV-3 = test system: SK-OV-3
# K562 = test system: K562
# NCI-H226 = test system: NCI-H226
# NCI-H23 = test system: NCI-H23
# UACC-257 = test system: UACC-257
# ACHN = test system: ACHN
# LOX IMVI = test system: LOX IMVI
# NCI/ADR-RES = test system: NCI/ADR-RES
# OVCAR-4 = test system: OVCAR-4
compound,measurement,setting,value
CCCc1cc(COC)c(C#N)c(O)n1,GI50,RPMI-8226,> 100 µM (inactive)
same,GI50,NCI-H522,> 100 µM (inactive)
same,GI50,786-0,> 100 µM (inactive)
same,GI50,UACC-62,> 100 µM (inactive)
same,GI50,CCRF-CEM,> 100 µM (inactive)
same,GI50,HOP-62,> 100 µM (inactive)
same,GI50,SN12C,> 100 µM (inactive)
same,GI50,BT-549,> 100 µM (inactive)
same,GI50,OVCAR-5,> 100 µM (inactive)
same,GI50,OVCAR-8,> 100 µM (inactive)
same,GI50,MCF7,> 100 µM (inactive)
same,GI50,CAKI-1,> 100 µM (inactive)
same,GI50,HCT-116,> 100 µM (inactive)
same,GI50,SNB-19,> 100 µM (inactive)
same,GI50,HCT-15,> 100 µM
same,GI50,HL-60,> 100 µM (inactive)
same,GI50,HCC 2998,> 100 µM (inactive)
same,GI50,MDA-MB-435,> 100 µM (inactive)
same,GI50,Hs-578T,> 100 µM (inactive)
same,GI50,COLO 205,> 100 µM (inactive)
same,GI50,T47D,> 100 µM (inactive)
same,GI50,DU-145,> 100 µM (inactive)
same,GI50,IGROV-1,> 100 µM (inactive)
same,GI50,A549,> 100 µM (inactive)
same,GI50,EKVX,> 100 µM (inactive)
same,GI50,HT-29,> 100 µM (inactive)
same,GI50,MDA-N,> 100 µM (inactive)
same,GI50,RXF 393,> 100 µM (inactive)
same,GI50,SF-539,65 µM (inactive)
same,GI50,SF-295,> 100 µM (inactive)
same,GI50,TK-10,> 100 µM (inactive)
same,GI50,Malme-3M,> 100 µM (inactive)
same,GI50,SK-MEL-28,> 100 µM (inactive)
same,GI50,SF-268,> 100 µM (inactive)
same,GI50,UO-31,> 100 µM (inactive)
same,GI50,MOLT-4,> 100 µM (inactive)
same,GI50,A498,> 100 µM (inactive)
same,GI50,U-251,> 100 µM (inactive)
same,GI50,M14,> 100 µM (inactive)
same,GI50,SW-620,> 100 µM (inactive)
same,GI50,MDA-MB-231,> 100 µM (inactive)
same,GI50,OVCAR-3,> 100 µM (inactive)
same,GI50,PC-3,> 100 µM (inactive)
same,GI50,KM12,> 100 µM (inactive)
same,GI50,SK-MEL-5,> 100 µM (inactive)
same,GI50,NCI-H460,> 100 µM (inactive)
same,GI50,SK-OV-3,> 100 µM (inactive)
same,GI50,K562,> 100 µM (inactive)
same,GI50,NCI-H226,17.5 µM (inactive)
same,GI50,NCI-H23,> 100 µM (inactive)
same,GI50,UACC-257,> 100 µM (inactive)
same,GI50,ACHN,> 100 µM (inactive)
same,GI50,LOX IMVI,> 100 µM (inactive)
same,GI50,NCI/ADR-RES,> 100 µM (inactive)
same,GI50,OVCAR-4,> 100 µM (inactive)
